Assay [1] has as its system E. coli growth in LB media. Kind of assay: Synergy between DDAC and TTPC by flow cytometry, Example 3. The settings on record: 40 ppm of biocide, ratio DDAC:TTPC. For orientation: In flow cytometry, cells or beads pass a laser one at a time.
For assay [2], the system named is Cultures of E. coli. In words: Viability measured by flow cytometry, Example 6. The format is cell-based. The settings on record: Escherichia coli, 4 hours at 37° C., n=3, ± 1 standard deviation, read-out: reduced viable bacteria (flow cytometry). How it is done:
(§1) Cultures of E. coli were left untreated or treated with tributyltetradecyl phosphonium chloride (TTPC) at 75 ppm, 150 ppm, or 300 ppm. Flow cytometry samples were prepared as described in Example 1 and triplicate culture bottles were prepared of the treated E. coli and untreated E. coli after 4 hours of incubation at 37° C. […] Viability was measured by flow cytometry and serial dilution in LB media. […] Error bars indicate 1 standard deviation. An asterisk indicates a statistically significant difference (p<0.05) and two asterisk indicates a p-value <0.01.

In assay [3] the test system is Cultures of E. coli. Kind of assay: Viability by standard culture method (serial dilution in LB media), Example 6. The following applies: Escherichia coli, 4 hours at 37° C., n=3, ± 1 standard deviation, read-out: reduced viable bacteria (serial dilution culturing). The format is cell-based. Here is the method: as §1
The subject of another assay is E. coli in LB media. Kind of assay: Effect of citric acid treatment on flow cytometry viable bacteria, Examples 8-9. The format is cell-based, Escherichia coli. The settings on record: concentration less than or equal to 20 mM.

SMILES strings stand for the structures.

As for `CCCCCCCCCC[N+](C)(C)CCCCCCCCCC.[Cl-]` [10:0, didecyldimethylammonium chloride], in assay [1], the “Depolarized and Membrane-damaged/mL” value turned out to be 555000 mL⁻¹; the Depolarized/mL was 1.45e+06 mL⁻¹; the Membrane-damaged/mL turned out to be 349 mL⁻¹; the Viable/mL worked out at 5390 mL⁻¹.

With `CCCCCCCCCCCCCC[P+](CCCC)(CCCC)CCCC.[Cl-]` [TTPC, tributyl tetradecyl phosphonium chloride], the inhibition at 75 ppm with Cultures of E. coli [2] (75 ppm) came out at 97.9%. In addition, in the assay on Cultures of E. coli [2] (150 ppm), the inhibition at 150 ppm was 99.7%. Moreover, the inhibition at 300 ppm with Cultures of E. coli [2] (300 ppm) was 100%. Moreover, in assay [1], the “Depolarized and Membrane-damaged/mL” value was determined as 1.67e+06 mL⁻¹; the Depolarized/mL stood at 2.54e+06 mL⁻¹; the Membrane-damaged/mL amounted to 537 mL⁻¹; the Viable/mL was 6330 mL⁻¹. The inhibition at 75 ppm in the assay with Cultures of E. coli [3] (75 ppm) was 99%. Besides, in the assay with Cultures of E. coli [3] (150 ppm), the inhibition at 150 ppm stood at 100%. In the assay with Cultures of E. coli [3] (300 ppm), the inhibition at 300 ppm was 100%.

Consider `O=C(O)CC(O)(CC(=O)O)C(=O)O` [citric acid], for which the “effect on cell viability when analyzed by flow cytometry” value in the assay with E. coli in LB media is on record as “does not affect the cell viability”.

The record behind these values is US9382572B2, “Methods of determining biocide efficacy or mechanism of action using flow cytometry” (Ecolab USA Inc., priority 2013, dated 2016).
